Test results from patent US9216247B2, “Buffered compositions for dialysis” (Advanced Renal Technologies, priority 1998, dated 2015).
Like-named read-outs stand apart in the source and are kept apart here.

How the values were obtained:
[1] = test system: coagulation behavior of blood; test: clotting time of patients dialysed with citric acid dialysate; assay type: in vivo; conditions: 2.4 mEq/L of citric acid in dialysate; beyond that achieved with heparin

| Compound | increase in patient's clotting time [1] | buffering action (bicarbonate concentrate solutions of 8.1<pH<8.3) | buffering action (bicarbonate concentrate solutions with a pH of <8.0) |
| --- | --- | --- | --- |
| O=C(O)CC(O)(CC(=O)O)C(=O)O [citric acid, Citric acid] | no measurable increase |  |  |
| CC(=O)[O-].[Na+] [sodium acetate] |  | evident | not apparent |
